Legend:
Experiment in all cases: relative viability (nuclei count vs DMSO), 5 days (fraction); higher = more cells survive
Doramapimod + Luminespib = compound: Cc1ccc(-n2nc(C(C)(C)C)cc2NC(=O)Nc2ccc(OCCN3CCOCC3)c3ccccc23)cc1 [Doramapimod] + CCNC(=O)c1noc(-c2cc(C(C)C)c(O)cc2O)c1-c1ccc(CN2CCOCC2)cc1 [Luminespib] (partner 0.01 µM)
In short: (§1)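 After 5 days of treatment, lung cancer cells in 1536-well plates were fixed and stained in a single step (final 0.05% Triton X-100, 1% formaldehyde, 1 ug/ml Hoechst) and their nuclei counted on 4× images. Treatment had been applied by pin tool the day after seeding as one drug alone or as a fixed anchor-drug dose with five library-drug doses (not always all listed) in √10 steps. Relative viability is the nuclei count of treated wells divided by that of vehicle wells, and values are medians of duplicate plates.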

Doramapimod + Olaparib = compound: Cc1ccc(-n2nc(C(C)(C)C)cc2NC(=O)Nc2ccc(OCCN3CCOCC3)c3ccccc23)cc1 [Doramapimod] + O=C(c1cc(Cc2n[nH]c(=O)c3ccccc23)ccc1F)N1CCN(C(=O)C2CC2)CC1 [Olaparib] (partner 8 µM)
In short: as §1

RAF265 + Lapatinib = compound: Cn1c(Nc2ccc(C(F)(F)F)cc2)nc2cc(Oc3ccnc(-c4ncc(C(F)(F)F)[nH]4)c3)ccc21 [RAF265] + CS(=O)(=O)CCNCc1ccc(-c2ccc3ncnc(Nc4ccc(OCc5cccc(F)c5)c(Cl)c4)c3c2)o1 [Lapatinib] (partner 2 µM)
In short: as §1

RAF265 + Decitabine = compound: Cn1c(Nc2ccc(C(F)(F)F)cc2)nc2cc(Oc3ccnc(-c4ncc(C(F)(F)F)[nH]4)c3)ccc21 [RAF265] + Nc1ncn([C@H]2C[C@H](O)[C@@H](CO)O2)c(=O)n1 [Decitabine] (partner 2 µM)
In short: as §1

Cell Line | relative viability (Doramapimod + Luminespib; first compound 0.02 µM) | relative viability (Doramapimod + Luminespib; first compound 0.2 µM) | relative viability (Doramapimod + Luminespib; first compound 0.6325 µM) | relative viability (Doramapimod + Luminespib; first compound 2 µM) | relative viability (Doramapimod + Olaparib; first compound 0.02 µM) | relative viability (Doramapimod + Olaparib; first compound 0.06325 µM) | relative viability (Doramapimod + Olaparib; first compound 0.2 µM) | relative viability (Doramapimod + Olaparib; first compound 0.6325 µM) | relative viability (Doramapimod + Olaparib; first compound 2 µM) | relative viability (RAF265 + Lapatinib; first compound 0.01 µM) | relative viability (RAF265 + Lapatinib; first compound 0.03162 µM) | relative viability (RAF265 + Lapatinib; first compound 0.1 µM) | relative viability (RAF265 + Lapatinib; first compound 0.3162 µM) | relative viability (RAF265 + Lapatinib; first compound 1 µM) | relative viability (RAF265 + Decitabine; first compound 0.01 µM) | relative viability (RAF265 + Decitabine; first compound 0.03162 µM) | relative viability (RAF265 + Decitabine; first compound 0.1 µM) | relative viability (RAF265 + Decitabine; first compound 0.3162 µM) | relative viability (RAF265 + Decitabine; first compound 1 µM) | relative viability (Doramapimod + Luminespib; first compound 0.06325 µM)
NCI-H2347 | 0.0162 | 0.601 | 0.5 | 0.492 | 0.618 | 0.641 | 0.546 | 0.575 | 0.53 | 1.1 | 0.915 | 0.998 | 0.887 | 0.435 | 0.676 | 0.561 | 0.574 | 0.526 | 0.382 | 
NCI-H2405 | 0.639 | 0.794 | 0.885 | 0.522 | 0.912 | 0.828 | 0.765 | 0.816 | 0.836 | 1.09 | 1.08 | 0.924 | 0.999 | 0.607 | 0.825 | 0.776 | 0.727 | 0.607 | 0.448 | 0.591
NCI-H3122 | 0.11 | 0.108 | 0.0726 | 0.092 | 0.694 | 0.62 | 0.721 | 0.599 | 0.599 | 1.04 | 1.11 | 1.07 | 0.953 | 0.98 | 0.408 | 0.379 | 0.429 | 0.304 | 0.29 | 0.0996
PC-3 [JPC-3] | 0.736 | 0.694 | 0.768 | 0.671 | 1.3 | 1.16 | 1.22 | 1.33 | 1.14 | 0.423 | 0.471 | 0.475 | 0.38 | 0.36 | 0.924 | 0.785 | 0.831 | 0.488 | 0.655 | 0.656
PC-14 | 0.146 | 0.18 | 0.159 | 0.152 | 0.351 | 0.36 | 0.342 | 0.281 | 0.269 | 0.339 | 0.331 | 0.403 |  | 0.383 | 0.24 | 0.204 | 0.231 | 0.163 | 0.226 | 0.196
RERF-LC-KJ | 1.35 | 1.24 | 1.36 | 1.2 | 0.916 | 0.864 | 1.08 | 1.01 | 0.887 | 0.837 | 0.776 | 0.827 | 0.784 | 0.679 | 0.815 | 0.616 | 0.669 | 0.583 | 0.527 | 1.16
SK-LU-1 | 0.208 | 0.172 | 0.218 | 0.186 | 0.487 | 0.43 | 0.39 | 0.503 | 0.388 | 0.685 | 0.669 | 0.669 | 0.61 | 0.34 | 0.847 | 0.597 | 0.508 | 0.569 | 0.414 | 0.204
SK-MES-1 | 0.725 | 0.694 | 0.836 | 0.601 | 0.707 | 0.694 | 0.638 | 0.683 | 0.607 | 0.468 | 0.449 | 0.366 | 0.349 | 0.269 | 0.383 | 0.295 | 0.3 | 0.231 | 0.221 | 0.563
SW 1573 | 0.235 | 0.207 | 0.692 | 0.185 | 0.446 | 0.425 | 0.456 | 0.546 | 0.433 | 1.15 | 1.18 | 1.18 | 1.04 | 0.824 | 0.675 | 0.406 | 0.4 | 0.325 | 0.244 | 0.181
